In patent US9052321B2, “Flavivirus-based system for production of hepatitis C virus (HCV)” (priority 2008, dated 2015):

Tested on: HCV particles released by BHK-21 parental or BHK-WNV1 cells
Assay: Release of HCV envelope proteins/particles by BHK cells transfected with pHCVp7 after glycosylation or trafficking inhibitors (Western blot)
Assay type: cell-based, HCV 1a
Conditions: for HCV production and/or secretion: summary in the model of FIG. 13; for secretion of HCV envelope as well as core proteins: BHK parental and -WNV SG-replicon cells transfected with pHCVp7, 3 mM dnj, 3 mM pag or 0.3 mM alloxan, Western blot
Protocol: FIG. 2 illustrates factors affecting the release of HCV structural proteins: A) Enhancement by flavivirus, but not alphavirus subgenomic, replicons in BHK-21 cells: BHK-21 parental cells (lane 1) or bearing WNV1 (lane 2), Den2 (lane 3) or Semliki Forest virus SG-replicon (lane 4) were transfected with pHCVp7 (plasmid encoding HCV core to p7). Three days later, clarified culture media were pelleted over 15% sucrose cushion, then pellets were analyzed by Western blot with the following monoclonal antibodies: i) anti-HCV E2: AP33; ii) anti-HCV E1: A4, and iii) anti-HCV core: C1. B) WNV- and HCV-SG rep differentially affect the release of HCV-like particles. (left) BHK-21 cells, parental or bearing WNV1 SG-rep, were transfected with HCVp7, a plasmid encoding HCV core to p7. Three days later, HCV proteins in the lysate and supernatants (SN) were analyzed by Western Blot (WB). (right) HuH-7.5 cells (parental or harboring HCV 1a SG-rep) transfected with the same plasmid, were analyzed by WB. *, the E1/E2 signals were obtained with 60 ml of culture media instead of 15 ml for BHK parental and -WNV1 cells. C) N-glycosylation but not O-glycosylation is required for the release of HCV particles: BHK cells were transfected with pHCVp7, then treated or not with 3 mM deoxynojirimycin (dnj), 3 mM phenyl acetyl galactosaminide (pag) or 0.3 mM alloxan (all) for 2 days; HCV E1 Envelope released by BHK-21 parental or BHK-WNV1 cells was analyzed by Western blot after incubation with or without endoglycosidase H (endo-H).
FIG. 11 illustrates that secretion of HCV particles involves maturation of HCV glycoproteins in Golgi apparatus: A) Twelve hours after transfection of BHK-WNV1 cells with pHCVp7, cells were treated with 20 μM brefeldin-A (BFA) for 24 hours and the amounts of HCV E1 and E2 proteins in cell lysates and released particles were analyzed by WB; Hsp70=control. B) BHK and BHK-WNV1 cells were transfected with pHCVp7. Three days later, cells and particles in SN were harvested and treated with endo-H, followed by WB analysis. *, 30 ml culture media was used for parental BHK cells (15 ml for BHK-WNV1 cells).
To test the sensitivity of HCV glycoproteins produced in BHK-21 cells to endo-beta-N-acetyl-glucosaminidase H (endoglycosidase H/endo-H; New England Biolabs), cells were transfected with pHCVp7 plasmid. Three days later, supernatant was harvested as above; cell lysate and supernatant were then incubated in the presence of endo-H according to the manufacturer's protocols. For deoxyrijinomycin (DNJ) and brefeldin A (BFA) treatment, cells were transfected with pHCVp7 and, 12 hr later, the medium was replaced with DMEM containing 5 μg/ml BFA (Sigma), or 3 mM DNJ. Cells were grown for another 24 hr and supernatant was harvested.

Structure (SMILES)	HCV secretion (BHK-WNV1 cells, 20 μM BFA for 24 hours)	electrophoretic mobility of intracellular HCV envelope proteins (BHK-WNV1 cells, BFA)	HCV production and/or secretion (BHK-WNV1 cells)	secretion of HCV envelope as well as core proteins	release of HCV particles (parental BHK-21 and BHK-WNV1 cells, 3 mM DNJ)
C[C@H]1CCC/C=C/[C@@H]2C[C@H](O)C[C@H]2[C@H](O)/C=C/C(=O)O1 [BFA, brefeldin A]	abrogated	enhanced	blocked	–	–
OC[C@H]1NC[C@H](O)[C@@H](O)[C@@H]1O [DNJ, deoxynojirimycin]	–	–	blocked	strongly inhibited	decreased
O=C1NC(=O)C(=O)C(=O)N1 [alloxan]	–	–	–	marginal effects	–
CC(=O)N[C@H]1[C@@H](Oc2ccccc2)O[C@H](CO)[C@H](O)[C@@H]1O [phenyl acetyl galactosaminide]	–	–	–	marginal effects	–
